Read-outs that look alike come from different tables or passages of the source.
What was measured:
M2 muscarinic receptor = molecular target: T1, M2 muscarinic receptor (Homo sapiens, UniProt P08172); test: M2 binding assay ([3H]-scopolamine, N-methyl chloride displacement)
T1 construct: purchased PerkinElmer, Inc., Wellesley, Mass; host or cells: CHO cells
T1 sequence (P08172 1-466): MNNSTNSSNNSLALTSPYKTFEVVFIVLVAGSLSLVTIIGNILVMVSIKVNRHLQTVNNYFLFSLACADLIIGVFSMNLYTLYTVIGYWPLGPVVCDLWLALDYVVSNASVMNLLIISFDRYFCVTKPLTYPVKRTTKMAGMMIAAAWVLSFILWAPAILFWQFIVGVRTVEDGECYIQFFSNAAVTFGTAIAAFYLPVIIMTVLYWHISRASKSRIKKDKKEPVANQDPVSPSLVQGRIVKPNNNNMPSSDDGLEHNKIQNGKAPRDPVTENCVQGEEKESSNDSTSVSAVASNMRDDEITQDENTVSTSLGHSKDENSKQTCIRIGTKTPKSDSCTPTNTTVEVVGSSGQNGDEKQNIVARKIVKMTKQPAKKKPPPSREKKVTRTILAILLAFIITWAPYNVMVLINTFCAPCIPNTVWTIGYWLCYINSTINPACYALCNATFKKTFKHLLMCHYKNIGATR

purebred Beagles [1] = test: Acute dog study (toxicity and MTD, escalating oral doses); format: in vivo
telemetered Beagle dogs = test: ECG and arterial blood pressure in telemetered Beagle dogs; format: in vivo, dog
Protocol: To determine if HY2901 could produce any changes in QT interval, the compound was studied in telemetered Beagle dogs. Dogs were implanted with devices to continuously monitor ECG and arterial blood pressure. Dogs (groups of 4) were studied in a Latin square cross-over design, with each dog receiving 3 different doses and a placebo. Two studies were conducted with doses of 0.3, 1, 3, 10, and 30 mg/kg. […] The tachycardia persisted for 6-8 hours postdose at 0.3 and 1 mg/kg. A ceiling effect to the heart rate increase seemed to exist with heart rates peaking at approximately 150-160 in both the 10 and 30 mg/kg dose groups.

[2] = Excretion in urine of animal species; format: in vivo
purebred Beagles [3] = test: 14-Day dog study with recovery phase; format: in vivo
Protocol: The toxicity and the toxicokinetics of HY2901 when administered daily via oral gavage (Phase 1) or capsules (Phase 2) to dogs for at least 14 days was determined. The reversibility, persistence, or delayed occurrence of observable effects following a 7-day (Phase 1) or 14-day (Phase 2) recovery period was also assessed. Doses of 3, 10, 30, and 70 mg/kg/day were studied.

Crl: CD(SD)IGS BR rats = test: Acute rat study (toxicity and MTD, oral gavage); format: in vivo
Protocol: The purpose of this study was to evaluate the toxicity and maximum tolerated dose (MTD) of the test articles when given via oral gavage to rats. Male Crl: CD®(SD)IGS BR rats (3/group) were assigned to 5 groups. At initiation of dosing, animals were approximately 7 weeks old with body weights ranging from 172 to 206 g. Each group received either 50, 100, 150, 200, or 250 mg/kg of HY2901 once daily for 5 days. All surviving animals were sacrificed on Day 6. Assessment of toxicity was based on mortality, clinical observations, and body weight data.

[4] = In vitro rate of metabolism in rat hepatocyte cultures; format: in vitro ADME
Protocol: (§1) Cytochrome P450 inhibition was studied with HY2901 in vitro. […] In addition, the in vitro rate of metabolism in rat, dog, monkey, and human hepatocyte cultures was determined for HY2901.

Crl:CD(SD)IGS BR rats = test: 14-Day rat study with recovery; format: in vivo
Protocol: The purpose of this study was to evaluate the toxicity of HY2901 when administered via oral gavage to rats for at least 14 days and to assess the reversibility, persistence, or delayed occurrence of any effects after a recovery period of up to 14 days.
Male and female Crl:CD®(SD)IGS BR rats were assigned to seven groups, four main study groups and three groups for toxicokinetics. Each group received dose preparations containing 0.25% methylcellulose, 400 cps in 200 mM acetate buffer, or 10, 30, or 150 mg of test article/kg of body weight (mg/kg/day) at a dose volume of 5 mL/kg.
Assessment of toxicity was based on mortality, clinical and ophthalmic observations, body weights, food consumption, clinical pathology, organ weights, and macroscopic and microscopic findings. Blood samples were collected for toxicokinetic evaluation.

[5] = In vitro rate of metabolism in human hepatocyte cultures; format: in vitro ADME
Protocol: as §1

Pharmacokinetics in rats = format: in vivo, rat; conditions: 3 mg/kg
Protocol: HY2901 was administered to rats, dogs, and cynomolgus monkeys at a dose of 3 mg/kg orally and intravenously. Plasma samples were collected from all species for pharmacokinetic analysis. […] HY2901 is 75% protein bound in rat plasma and 60% protein bound in human plasma.

M1 muscarinic receptor = molecular target: T2, M1 muscarinic receptor (Homo sapiens, UniProt P11229); test: M1 binding assay ([3H]-scopolamine, N-methyl chloride displacement)
T2 construct: purchased PerkinElmer, Inc., Wellesley, Mass; host or cells: CHO cells
T2 sequence (P11229 1-460): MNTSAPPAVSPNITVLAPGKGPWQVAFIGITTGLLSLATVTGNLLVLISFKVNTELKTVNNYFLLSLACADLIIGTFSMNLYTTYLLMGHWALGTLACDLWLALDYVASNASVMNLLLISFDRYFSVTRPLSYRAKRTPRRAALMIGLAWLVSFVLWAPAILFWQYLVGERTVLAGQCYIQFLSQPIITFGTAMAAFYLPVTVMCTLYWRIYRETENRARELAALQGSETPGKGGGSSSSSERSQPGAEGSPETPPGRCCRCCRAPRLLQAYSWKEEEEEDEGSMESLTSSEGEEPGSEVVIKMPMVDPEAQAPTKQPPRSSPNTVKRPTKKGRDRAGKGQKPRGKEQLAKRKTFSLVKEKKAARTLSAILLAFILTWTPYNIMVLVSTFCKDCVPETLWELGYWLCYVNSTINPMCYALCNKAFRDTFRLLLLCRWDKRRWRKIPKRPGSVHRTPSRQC

M3 muscarinic receptor = molecular target: T3, M3 muscarinic receptor (Homo sapiens, UniProt P20309); test: M3 binding assay ([3H]-scopolamine, N-methyl chloride displacement)
T3 construct: purchased PerkinElmer, Inc., Wellesley, Mass; host or cells: CHO cells
T3 sequence (P20309 whole entry): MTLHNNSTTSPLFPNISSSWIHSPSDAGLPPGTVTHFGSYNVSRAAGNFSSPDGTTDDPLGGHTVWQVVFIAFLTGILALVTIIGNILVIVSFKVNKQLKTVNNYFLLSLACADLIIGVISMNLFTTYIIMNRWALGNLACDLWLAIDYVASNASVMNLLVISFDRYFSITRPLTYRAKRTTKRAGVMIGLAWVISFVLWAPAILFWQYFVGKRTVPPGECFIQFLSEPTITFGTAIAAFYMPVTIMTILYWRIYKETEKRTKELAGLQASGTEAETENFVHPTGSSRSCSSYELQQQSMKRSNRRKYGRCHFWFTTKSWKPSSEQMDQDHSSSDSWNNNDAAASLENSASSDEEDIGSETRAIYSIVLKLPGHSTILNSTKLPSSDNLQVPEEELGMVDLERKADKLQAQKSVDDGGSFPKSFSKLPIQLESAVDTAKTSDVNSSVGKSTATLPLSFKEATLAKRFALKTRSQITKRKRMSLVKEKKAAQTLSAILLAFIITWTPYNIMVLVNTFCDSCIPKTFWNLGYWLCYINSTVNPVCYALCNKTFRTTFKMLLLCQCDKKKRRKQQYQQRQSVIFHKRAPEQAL

hERG channel = hERG channel (Homo sapiens, UniProt Q12809)
hERG channel, sequence (Q12809 whole entry): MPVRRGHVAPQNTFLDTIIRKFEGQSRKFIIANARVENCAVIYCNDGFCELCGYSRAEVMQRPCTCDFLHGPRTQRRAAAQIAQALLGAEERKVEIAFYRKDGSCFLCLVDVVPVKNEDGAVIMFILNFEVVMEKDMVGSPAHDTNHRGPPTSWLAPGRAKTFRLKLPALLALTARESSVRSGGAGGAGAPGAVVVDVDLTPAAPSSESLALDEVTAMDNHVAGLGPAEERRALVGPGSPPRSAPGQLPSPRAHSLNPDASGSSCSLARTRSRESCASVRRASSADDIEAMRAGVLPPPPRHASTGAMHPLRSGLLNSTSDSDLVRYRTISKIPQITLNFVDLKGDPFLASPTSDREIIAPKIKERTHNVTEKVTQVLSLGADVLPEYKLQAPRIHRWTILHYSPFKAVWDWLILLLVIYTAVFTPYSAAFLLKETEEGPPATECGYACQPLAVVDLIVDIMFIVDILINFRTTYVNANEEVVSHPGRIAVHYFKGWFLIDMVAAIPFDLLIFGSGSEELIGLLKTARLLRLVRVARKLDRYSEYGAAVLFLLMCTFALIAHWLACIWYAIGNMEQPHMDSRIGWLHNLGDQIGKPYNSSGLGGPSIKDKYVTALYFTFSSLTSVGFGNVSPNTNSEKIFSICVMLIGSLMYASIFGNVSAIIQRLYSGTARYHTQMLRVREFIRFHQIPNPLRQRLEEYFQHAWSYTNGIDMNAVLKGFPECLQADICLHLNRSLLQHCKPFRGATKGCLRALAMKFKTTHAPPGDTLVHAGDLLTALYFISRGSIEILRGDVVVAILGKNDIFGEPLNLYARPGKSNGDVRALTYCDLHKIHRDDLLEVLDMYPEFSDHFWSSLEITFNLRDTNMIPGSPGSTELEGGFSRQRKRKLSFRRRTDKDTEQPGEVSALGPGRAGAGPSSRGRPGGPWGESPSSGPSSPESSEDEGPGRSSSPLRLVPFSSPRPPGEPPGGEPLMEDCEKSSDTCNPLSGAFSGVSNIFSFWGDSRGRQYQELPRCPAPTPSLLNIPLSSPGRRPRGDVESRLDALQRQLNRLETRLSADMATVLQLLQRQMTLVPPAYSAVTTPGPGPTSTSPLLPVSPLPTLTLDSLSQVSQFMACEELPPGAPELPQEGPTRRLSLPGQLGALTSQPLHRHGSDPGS

male Wistar rats [6] = test: SCORE-2000 sleep-wakefulness, locomotor activity and body temperature monitoring; conditions: oral, CT-18
male Wistar rats [7] = format: in vivo; conditions: oral
Protocol: The Irwin screen can provide useful information on potential side effects of compounds on general physiological and behavioural functions. The screen was conducted by administering the test compounds orally in 0.25% aqueous methylcellulose using male Wistar rats, a frequently used species in such studies and for which background data are readily available.
The Irwin screen tests for numerous parameters in animals that have been administered the test compound. For example, the screen can include: in-cage effects, e.g., dispersion, respiratory rate, locomotor activity, restlessness, fighting, alertness, apathy, and exophthalmus; in-arena effects, e.g., transfer arousal, spatial locomotion, ptosis, startle, tail elevation, piloerection, touch escape, positional passivity, catalepsy, tighting reflex, visual placing, grip strength, pinna, corneal, pain response, and wire manoeuvre; parameters observed in handling, e.g., cyanosis, cutaneous blood flow, hypothermia, body tone, pupil size, light-pupil response, lacrimation, grooming, red staining, salivation, and provoked biting; general scores e.g., fearfulness, irritability, abnormal gait, abnormal body carriage, tremors, twitches, convulsions, bizarre behaviour, writhing, vocalisation, diarrhoea, number of defaecations, number of urinations, moribund, lethality, and abnormalities detected. Further details can be found in Irwin, S; Comprehensive observational assessment: I a. A systematic, quantitative procedure for assessing the behavioural and physiological state of the mouse. […]

H1 histamine receptor = molecular target: T4, H1 histamine receptor (Bos taurus, UniProt P30546); conditions: reference compounds; unit inferred; read-out: Ki, H1 binding assay reference compounds; cited from earlier work
T4 construct: the receptors were obtained from bovine cerebellar membrane tissue; from tissue; host or cells: bovine cerebellar membranes
T4 sequence (P30546 whole entry): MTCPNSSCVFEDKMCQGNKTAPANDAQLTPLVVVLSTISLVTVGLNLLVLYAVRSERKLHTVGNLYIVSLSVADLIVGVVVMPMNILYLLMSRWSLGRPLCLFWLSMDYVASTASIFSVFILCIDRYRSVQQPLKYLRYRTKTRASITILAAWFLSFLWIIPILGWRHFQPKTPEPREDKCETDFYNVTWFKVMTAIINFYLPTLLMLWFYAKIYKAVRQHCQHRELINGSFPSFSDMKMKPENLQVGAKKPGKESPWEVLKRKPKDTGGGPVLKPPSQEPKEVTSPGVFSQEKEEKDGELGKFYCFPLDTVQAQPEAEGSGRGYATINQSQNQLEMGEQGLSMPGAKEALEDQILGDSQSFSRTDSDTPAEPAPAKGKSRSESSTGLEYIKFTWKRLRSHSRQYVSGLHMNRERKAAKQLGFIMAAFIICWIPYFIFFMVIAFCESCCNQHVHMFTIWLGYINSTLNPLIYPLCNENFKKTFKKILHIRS

[8] = 50-250 mg/kg once daily for 5 days

C[N+]1(C)C2CC(OC(=O)C(CO)c3ccccc3)CC1C1OC12.[Br-] (single isomer, unassigned; (-)) [scopolamine, MethylBr, (−)-scopolamine, methyl-, bromide, reference compound]
Slope, M2 binding curve (M2 muscarinic receptor): −0.89

CC(C)(CN1CCC(=C2c3ccc(F)cc3COc3ccccc32)CC1)C(=O)O [Compound 49a]
clinical signs (purebred Beagles [1]; 25 mg/kg): No clinical signs of toxicity
clinical signs (purebred Beagles [1]; 40 mg/kg on Day 5): body tremors, mild to moderate ataxia, excessive salivation and hypoactivity
clinical signs (purebred Beagles [1]; 50 mg/kg): Body tremors, mild to severe ataxia, and hypoactivity
clinical signs (purebred Beagles [1]; 75 mg/kg): Tremors (entire body, hind limbs, and/or head), mild to moderate ataxia, hypoactivity
effect on body weight (purebred Beagles [1]; dog, in vivo): minimal effect
changes in QT or corrected QT interval (telemetered Beagle dogs; 0.3, 1, 3, 10 and 30 mg/kg, any dose): no changes
heart rate effect (telemetered Beagle dogs; 0.3-30 mg/kg, intravenous or oral): dose-related sinus tachycardia
persistence of tachycardia postdose (telemetered Beagle dogs; 0.3 and 1 mg/kg): 6 to 8 h
peak heart rate (telemetered Beagle dogs; 10 and 30 mg/kg dose groups): 150-160
persistence of sinus tachycardia (telemetered Beagle dogs; higher doses): 10 to 12 h
blood pressure (telemetered Beagle dogs; paralleled the tachycardia): slight increase
drug and metabolites in urine [2]: Unchanged HY2901, as well as metabolites, has been found in the urine
clinical observations (purebred Beagles [3]; 3 mg/kg/day, Phase 1): no treatment-related clinical observations
survival (purebred Beagles [3]; Beagle, dog, in vivo, 14 days): survived until scheduled sacrifice
clinical pathology data (purebred Beagles [3]; Phase 1 and 2): no evidence in the clinical laboratory data of an effect
clinical observations (purebred Beagles [3]; Phase 2): treatment-related head tremors, ataxia, hypoactivity, and excessive salivation
hypoactivity (Crl: CD(SD)IGS BR rats; [8]): observed in all rats
incidence and duration of ataxia (Crl: CD(SD)IGS BR rats; [8]): dose-response relationship was observed
Day 6 body weights (Crl: CD(SD)IGS BR rats; two 250 mg/kg rats): slightly decreased
metabolism by hepatocytes [4]: extensively metabolized
food consumption (Crl:CD(SD)IGS BR rats; 150 mg/kg/day rats, Week 1): depression in food consumption
unscheduled deaths (Crl:CD(SD)IGS BR rats; 10, 30, 150 mg/kg/day): largely restricted to the 150 mg/kg/day groups
increases in Cmax and AUC(0-t) with dose (Crl:CD(SD)IGS BR rats; 10 to 150 mg/kg/day, except Cmax at 150 mg/kg/day on Day 14): greater than dose proportional
ophthalmic observations (Crl:CD(SD)IGS BR rats; any group): No ophthalmic lesions
metabolism by hepatocytes [5]: little metabolism
absorption after oral administration (Pharmacokinetics in rats; all species (rat, dog, cynomolgus monkey)): rapidly and highly absorbed
Peak plasma levels (Pharmacokinetics in rats; rats, most efficacious dose in the sleep assay): less than 1.5 mM

CC(C)(CN1CCC(=C2c3ccccc3COc3ccccc32)CC1)C(=O)O [Compound 69a]
Ki (M2 muscarinic receptor): > 10 µM
Ki (M1 muscarinic receptor): > 10 µM
Ki (M3 muscarinic receptor): > 10 µM

CC(C)(CCN1CCC(=C2c3ccccc3COc3ccccc32)CC1)C(=O)O [Compound 70a]
Ki (M3 muscarinic receptor): > 10 µM

O=C(O)C1(CCN2CCC(=C3c4ccccc4COc4ccccc43)CC2)CC1 [Compound 70b]
hERG blocking (hERG channel): 50.2%
LUSB (male Wistar rats [6]; dose 10 mg/kg): 8.3 min
NREM (male Wistar rats [6]; dose 10 mg/kg): 33.7 min
LUSB (male Wistar rats [6]; dose 30 mg/kg): 13.8 min
NREM (male Wistar rats [6]; dose 30 mg/kg): 43.2 min
Side effects in Irwin screen (male Wistar rats [7]; 10 mg/kg dose): clean
Side effects in Irwin screen (male Wistar rats [7]; 30 mg/kg dose): clean
Side effects in Irwin screen (male Wistar rats [7]; 100 mg/kg dose): some side effects

CN(C)CCCSC(=N)N [dimaprit]
Ki (H1 histamine receptor): > 10 µM

Reference: US7411069B2 (Hypnion, Inc., priority 2003, dated 2008)
